Assay results: patent US11969425B2, “Inhibitor of indoleamine-2,3-dioxygenase (IDO)” (InventisBio LLC, priority 2016, dated 2024)
Read-outs that look alike come from different tables or passages of the source.

Assays:
[1] = system: T cells and HeLa cells co-culture; test: T cells and HeLa cells co-culture assay (IFN-gamma production); type: cell-based, human; details: CD3 T cells + HeLa cells, 72 hr, FIG. 4; read-out: EC50, production of IFN-gamma in the T cells and HeLa cells co-culture media
Procedure: HeLa cells were seeded into 96-well plate (5000 cells per well in 100 μL of cell growth media DMEM with 10% FBS and 1% pen/strep) and incubated at 37° C. with 5% CO2. After overnight incubation, 200 μL of INF-gamma (50 ng/ml in growth media) was added to the plate and returned to incubator for another 48 hr. SepMater™-50 centrifuge tube was used to isolate PBMC from human donor according to manufacture's instruction (Stemcell). The CD3 T cell was then isolated from the PBMC using EasySep Human T cell isolation kit (Stemcell). Wash the 96-well plat twice with 200 μL of co-culture media (RPMI-1640+10% FBS+1% Pen/strep). Adjust the CD3 T cells density to 5×10^5 cells/ml with high dose anti-CD3/CD28 beads and co-culture medium (RPMI-1640+10% FBS+1% Pen/strep) and seed 200 μL/well into 96-well plate. Compound at different concentration was added to each well and the plate was incubated for a further 72 hr. Level of INF-gamma in the co-culture media (100 μL) was analyzed using the Human IFN-gamma ELISA Ready-SET-GO kit from eBioscience.

[2] = system: kynurenine production in HeLa cells; test: Inhibition of kynurenine production in HeLa cells; type: cell-based, human; details: HeLa cells, human IFN-γ 50 ng/mL, 48 h, kynurenine read at 480 nm, read-out: IC50
[3] = system: pooled human hepatocytes; test: Human hepatocyte clearance study; type: in vitro ADME
Procedure: (§1) The in vitro human hepatocyte clearance of compounds described here was studied using pooled human hepatocytes purchased from BioreclamationIVT (Westbury, NY, Cat #X008001, Lot #TQJ). The assay was conducted according to manufacture's instruction. Briefly, 10 mM stock solutions of test compounds and positive control (Verapamil) were prepared in 100% DMSO. Thawing media (50 mL) used in the study consists of: 31 mLWilliams E medium (GIBCO Cat #12551-032); 15 mL isotonic percoll (GE Healthcare Cat #17-0891-09); 500 uL 100XGlutaMax (GIBCO Cat #35050); 750 uL HEPES (GIBCO Cat #15630-080); 2.5 mL FBS (Corning Cat #35-076*CVR); 50 uL human insulin (GIBCO Cat #12585-014) and 5 uL dexamethasone (NICPBP). Incubation media is made of Williams E medium supplemented with 1xGlutaMax. Both thawing medium and incubation medium (serum-free) were placed in a 37° C. water bath for at least 15 minutes prior to use. Compound stock solutions were diluted to 100 μM by combining 198 μL of 50% acetonitrile/50% water and 2 μL of 10 mM stock solution. Verapamil was use as positive control in the assay. Vials of cryopreserved hepatocytes were removed from storage and thawed in a 37° C. water bath with gentle shaking. Contents of the vial were poured into the 50 mL thawing medium conical tube. Vials were centrifuged at 100 g for 10 minutes at room temperature. Thawing medium was aspirated and hepatocytes were re-suspended with serum-free incubation medium to yield ˜1.5×10^6 cells/mL. Hepatocyte viability and density were counted using a Trypan Blue exclusion, and then cells were diluted with serum-free incubation medium to a working cell density of 0.5×10^6 viable cells/mL. Then, a portion of the hepatocytes at 0.5×10^6 viable cells/mL was boiled for 5 minutes prior to adding to the plate as negative control to eliminate the enzymatic activity so that little or no substrate turnover should be observed. The boiled hepatocytes were used to prepare negative samples. Aliquots of 198 μL hepatocytes were dispensed into each well of a 96-well non-coated plate. The plate was placed in the incubator on an orbital shaker at 500 rpm for approximately 10 minutes. Aliquots of 2 μL of the 100 μM test compound or positive control were added into respective wells of the non-coated 96-well plate to start the reaction. This assay was performed in duplicate. The plate was incubated in the incubator on an orbital shaker at 500 rpm for the designated time points. Twenty-five microliter of contents were transferred and mixed with 6 volumes (150 μL) of cold acetonitrile with IS (200 nM imipramine, 200 nM labetalol and 200 nM diclofenac) to terminate the reaction at time points of 0, 15, 30, 60, 90 and 120 minutes. Samples were centrifuged at 3,220 g for 25 minutes and aliquots of 150 μL of the supernatants were used for LC-MS/MS analysis. For data analysis, all calculations were carried out using Microsoft Excel. Peak areas were determined from extracted ion chromatograms. The in vitro half-life (t1/2) of parent compound was determined by regression analysis of the percent parent disappearance vs. time curve. The in vitro half-life (in vitro t1/2) was determined from the slope value: in vitro t1/2=0.693/k. […] Scaling factors for in vivo intrinsic clearance prediction using human hepatocytes are listed as: liver weight (g liver/kg body weight): 25.7; hepatocyte concentration (10^6 cells/g liver): 99; scaling factor: 2544.3.

[4] = system: kynurenine production in SKOV-3 cells; test: Inhibition of kynurenine production in SKOV-3 cells; type: cell-based, human
Procedure: The effect of compounds described herein on the inhibition of kynurenine production in HeLa cells (derived from human cervical cancer) was determined. HeLa cells were seeded into a 96-well culture plate at a density of 5×10^3 per well in RPMI1640/phenol red free media (from GIBCO) with 2 mM L-glutamine and 10% fetal bovine serum (FBS, from GIBCO) and grown overnight in a 37° C. incubator with 5% CO2. Twenty-four hours later, human IFN-γ (from GIBCO) (final concentration 50 ng/mL) and test compound solutions (serially diluted to different wells) were added to each well with a final volume of 200 uL per well. Forty-eight hours after incubation with compounds, 140 uL supernatant was taken from each well and was transferred to a new 96-well plate. Ten microliters of 6.1 N trichloroacetic acid were added into each well, mixed and incubated at 50° C. for 30 minutes. […] The yellow color derived from kynurenine was measured at 480 nm using a SPECTRAmax i3 reader. Each compound concentration was done in triplicates and compound IC50 value was calculated using nonlinear regression using Graphpad Prism 5.0.
The effect of compounds described herein on the inhibition of kynurenine production in SKOV-3 cells (derived from human ovarian cancer) was determined using a similar experimental procedure as described in Example A. Exemplary results are shown in FIG. 1. […]

[5] = system: LPS-induced plasma kynurenine; test: Inhibition of LPS induced plasma kynurenine in mice; type: in vivo; details: Balb/c mouse, 5 mg/kg LPS i.p. plus oral 30 mpk
Procedure: The effect of compounds described herein on the inhibition of lipopolysaccharide (LPS)-induced plasma kynurenine in mouse was determined. Female Balb/c mouse (˜20 g, obtained from Vital River Laboratory Animal Co. LTD) was treated with either vehicle control (saline) or 5 mg/kg LPS via intraperitoneal injection, followed by an oral dose of 30 mpk compound 9 within 5 minutes of LPS injection. Blood samples (500 uL) were collected into K2EDTA tube via retro-orbital puncture at 12 and 24 hrs (terminal bleeding) after treatment with LPS or LPS plus compound 9. For vehicle control group, plasma samples were collected at 24 hour post dose. Blood samples were put on ice after collection and centrifuged at 4° C. (2000 g, 5 minutes) immediately after collection to obtain the plasma. Plasma kynurenine level was determined by LC-MS/MS analysis. Each group contains 3 mice and mean plasma kynurenine level was plotted in FIG. 2.

[6] = Human hepatocyte clearance study; type: in vitro ADME; details: pooled cryopreserved human hepatocytes (suspension)
Procedure: as §1

| Structure (SMILES) | EC50 [1] | IC50 [2] | Human In vitro Clint (μL/min/10^6 cells) ([3]; pooled human hepatocytes) | Human In vitro T1/2 ([3]; pooled human hepatocytes) | Human Hepatocyte Remaining Percentage @ 120 min ([3]; pooled human hepatocytes) | Human Scale-up Clint ([3]; scaled up from in vitro t1/2, scaling factor 2544.3) | IC50 ([4]; FIG. 1) | drop of plasma kynurenine compared to the LPS treatment alone ([5]; 12 hour time point) | drop of plasma kynurenine compared to the LPS treatment alone ([5]; 24 hour time point) | IC50 ([2]; Homo sapiens, HeLa) | CLint scaled at 1 µM ([6]; human, scaled up from in vitro t1/2, scaling factor 2544.3, read-out: Human Scale-up Clint) | hepatocyte CLint at 1 µM ([6]; pooled human hepatocytes, read-out: Human In vitro Clint (μL/min/10^6 cells)) | half-life at 1 µM ([6]; pooled human hepatocytes, read-out: Human In vitro T1/2) | IC50 ([4]; Homo sapiens, SK-OV-3, FIG. 1) |
| --- | --- | --- | --- | --- | --- | --- | --- | --- | --- | --- | --- | --- | --- | --- |
| NS(=O)(=O)NCCNc1nonc1/C(=N/O)Nc1ccc(F)c(Br)c1 [INCB-24360, reference compound] | 41 nM | 6.9 nM | 19 μL/min/10^6 cells | 1.22 h | 35 | 48 mL/min/kg | 10.2 nM | – | – | – | – | – | – | – |
| CC(C)CN(CC(C)C)c1ccc(C2(C(=O)O)CCCC2)cc1NC(=O)Nc1ccc(F)cc1F [Compound 9, 1-[4-[bis(2-methylpropyl)amino]-3-[[(2,4-difluorophenyl)carbamoyl]amino]phenyl]cyclopentane-1-carboxylic acid] | – | – | – | – | 79 | – | – | 72% | 85% | 2.2 nM | 10 mL/min/kg | 3 µL/min/1e6 cells | 7.05 h | 7.4 nM |
